Test results: patent US20230026277A1, “COMPOSITION FOR PREVENTION, ALLEVIATION, OR TREATMENT OF RESPIRATORY DISEASE” (MICROX CO., LTD., priority 2019, published 2023)

Columns and labels:
[1] = tested on: p-cPLA and p-p38 proteins; assay: Western blot of p-cPLA and p-p38 in lung tissue of asthma-induced mice; assay type: in vivo
Experimental: (§1) Also, on days 21 and 28 from the experimental starting date, the mice were put into a plastic box (Plexiglas (Rohm & Haas, Philadelphia, Pa.) exposure chamber; 24.5 cm×40.5 cm×15.0 cm), and 1.5% ovalbumin was evaporated using an ultrasonic nebulizer (NE-U12; output 0.8 mL/min; Omron, Japan), and injected into the box for 30 minutes so that the mice inhaled the evaporated ovalbumin (secondary challenge).
A tissue was extracted from each of the mice manufactured in Experimental Method 1, and finely ground to a cell level. Thereafter, the cells were lysed in a cell lysis buffer containing a protease inhibitor to obtain a cell lysate. The cell lysate was centrifuged to obtain protein. Then, an equivalent amount of the proteins obtained from the cells were loaded on an SDS-PAGE gel and electrophoresed. The proteins present in the electrophoresed gel were transferred to a PVDF membrane. […] The PVDF membrane was washed three times with a TBS-T buffer, and visualized and quantified using an ECL Western blotting detection reagent. […]
Small interfering RNA (siRNA; hereinafter referred to as “MKP-1 siRNA”) against RNA encoding an MKP-1 protein, and control siRNA strands were purchased from SANTA CRUZ (USA). […] An effect of the MKP-1 siRNA interference was determined by measuring an expression level of the MKP-1 protein in the lung tissue through Western blot analysis. […]

[2] = tested on: asthma-induced mice; assay: Bronchial hypersensitivity reaction (Rrs value, methacholine), asthma-induced mice; assay type: in vivo; details: oral 200 or 400 μg/kg/day 30 minutes before secondary challenge, 48 hours after, methacholine 5.0 to 50 mg/mL, FIG. 5
Experimental: Eight-week-old female […] mice (Orient Bio Korea Inc., Korea) having no certain pathogen were accommodated in an aseptic laminar-flow cabinet, and bred by supplying a standard solid feed ad libitum. When the following experiment was performed, the mice were made to correspond to 7- to 8-weeks old, and all laboratory animals were managed according to the protocol approved by the Institutional Animal Care and Use Committee of the Chonbuk National University Medical School.
as §1
45 mg/kg of sodium pentobarbital was intraperitoneally injected into the mice prepared in Experimental Method 1 to anesthetize the mice, and the airways were cut and an 18 gauge needle was inserted into the airways. Thereafter, the needle was connected to a small-sized animal respirator connected to a computer, and the computer system was adjusted to a respiration rate of 150 breaths per minute. Then, methacholine in the form of aerosol was fed at an increasing concentration of 5.0 to 50 mg/mL so that the mice inhaled the methacholine. Then, an airway response was measured, and indicated as an Rrs value.
Preparation Example 3 (α,δ-NA-L-G) or α,δ N-acetyl-D-glutamine was orally administered to the asthma-induced mice of Experimental Method 1 at a concentration of 200 or 400 μg/kg/day 30 minutes before a secondary airway challenge, and the bronchial hypersensitivity reaction was measured 48 hours after the secondary challenge using the method described in Experimental Method 5. The results are shown in A and B of FIG. 5.

CC(=O)NC(=O)CC[C@H](NC(C)=O)C(=O)O [Preparation Example 3, 2,5-diacetamido-5-oxopentanoic acid]
levels of the p-cPLA and p-p38 proteins ([1]; lung tissue, oral daily 200, 500 or 1,000 μg/kg/day, 10 and 30 minutes after secondary challenge, FIG. 7): decreased depending on the concentration
phosphorylation levels of cPLA2 and p38 ([1]; with MKP-1 siRNA treatment, same conditions as [5-1], FIG. 8): increased
Rrs value (bronchial hypersensitivity reaction) [2]: remarkably inhibited
